Measured values: patent publication US8362031B2, “Lonidamine analogues and treatment of polycystic kidney disease” (University of Kansas, priority 2004, dated 2013)
Entries after “also recorded” stand apart in the source; their conditions may differ.

Legend:
[1] = test system: NKCC1; test: Immunostaining of organ culture kidney sections; format: cell-based, mouse; conditions: 1-5 uM, cAMP-treated E15.5 organ culture kidneys, images not shown
Description: To also test whether GMZ can target the Hsp90 client protein NKCC1, sections of E15.5 organ culture kidneys treated with cAMP or cAMP plus GMZ were immunostained with an antibody for NKCC1 (methods in Magenheimer, et al., 2006). […] Consistent with the known localization of NKCC1 in the kidney, the immunolabeling appeared to be decreased in the metanephric mesenchyme and collecting ducts when GMZ was used at 1-5 uM.

[2] = test system: ADPKD cyst-lining epithelial cells; test: MTT assay, proliferation of ADPKD cyst-lining epithelial cells; format: cell-based, human
Description: Gamendazole (GMZ) was studied to determine the effect on cAMP and EGF treated ADPKD cyst-lining epithelial cells. The cells were treated with 100 uM cAMP or 25 ng/ml EGF to stimulate cell proliferation. Increasing concentrations of gamendazole were added to the medium of the cells. After 72 hours of treatment, MTT assays were performed.
For the MTT assay shown in FIG. 10A, ADPKD cyst-lining epithelial cells were plated at a density of 4×10^3 cells per well in a 96-well cell culture plate (n=6). Cells were serum-starved for 24 hours and treated either with 100 μM cAMP or 25 ng/ml EGF to stimulate cell proliferation. For the MTT assay shown in FIG. 10B, ADPKD cells were plated at a density of 2×10^3 cells per well in medium containing 1% FBS. After 24 hours, medium was changed to include 5% FBS. Increasing concentrations of GMZ were added to the medium for the cells of both FIGS. 10A and 10B to determine the effect of GMZ on cell proliferation. After 72 hours of treatment, MTT assays were performed by adding dye solution to the cells and stopping the reaction four hours later. Optical densities were measured using a spectrophotometer. In each group, results were expressed as a percentage of the control group (not treated with GMZ).

[3] = test system: E15.5 kidneys from Pkd1+/+, +/−, and −/− mice; test: Metanephric organ culture, cAMP-driven cyst formation; format: cell-based, mouse
Description: To determine whether gamendazole alters the cyst-forming process in response to cAMP, kidneys from Pkd1+/+, +/−, and −/− mice were placed in metanephric culture at E15.5 and treated with 100 uM 8-Br-cAMP with or without gamendazole (100 nM-10 uM) for 4 days.
The length of time that Gamendazole was able to block fluid secretion in embryonic kidneys using a washout technique was studied. Briefly, E15.5 kidneys were treated with cAMP alone or with cAMP plus 5 microM Gamendazole. 24 hrs later, culture medium was removed from the GMZ+cAMP-treated kidneys and was replaced with fresh medium containing cAMP only. […] This was evident by the reduced number and size of the tubule dilations on Day 4.

[4] = test system: Salmonella Typhimurium TA 100; test: Ames test for mutagenicity (plate assay, colony count); conditions: 48 hours at 37° C.
[5] = biological target: T1, HSP90 (Mus musculus, UniProt P11499); test: Affinity chromatography of cell lysate with biotinylated RC-MC-110, drug specific elution; format: binding; conditions: TM4 sertoli cell (mouse) and ID8 cell lysates, avidin-sepharose column
T1 construct: Wash four 150 mm plates of TM4 cells (sertoli cells) or ID-8 cells (ovarian cancer) once with PBS; endogenous in cells; host or cells: TM4 Sertoli cells (mouse) and ID8 ovarian cancer cells, cell lysate
T1 sequence (P11499 whole entry): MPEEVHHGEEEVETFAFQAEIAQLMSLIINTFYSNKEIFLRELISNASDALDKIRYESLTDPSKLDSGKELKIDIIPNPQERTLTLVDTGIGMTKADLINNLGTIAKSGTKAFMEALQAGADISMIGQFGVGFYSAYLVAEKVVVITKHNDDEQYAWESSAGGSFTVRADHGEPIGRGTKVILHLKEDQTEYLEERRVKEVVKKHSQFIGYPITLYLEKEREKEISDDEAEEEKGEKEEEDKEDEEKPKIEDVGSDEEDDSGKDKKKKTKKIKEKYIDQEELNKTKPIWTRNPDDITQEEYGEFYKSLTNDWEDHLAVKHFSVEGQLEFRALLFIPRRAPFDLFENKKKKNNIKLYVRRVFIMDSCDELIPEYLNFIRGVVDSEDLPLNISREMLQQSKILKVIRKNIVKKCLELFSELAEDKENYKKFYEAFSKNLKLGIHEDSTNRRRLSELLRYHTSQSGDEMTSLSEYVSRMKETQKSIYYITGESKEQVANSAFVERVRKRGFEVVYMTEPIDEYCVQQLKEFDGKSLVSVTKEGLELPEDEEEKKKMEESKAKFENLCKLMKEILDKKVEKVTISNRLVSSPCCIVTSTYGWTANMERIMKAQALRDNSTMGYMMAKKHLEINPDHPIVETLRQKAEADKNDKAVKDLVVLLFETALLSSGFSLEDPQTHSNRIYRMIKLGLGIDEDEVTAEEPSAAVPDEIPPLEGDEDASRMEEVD
Description: To analyze the binding of the compounds of the present invention, the following procedure is used.
2. Wash four 150 mm plates of TM4 cells (sertoli cells) or ID-8 cells (ovarian cancer) once with PBS (20 mM concentration pH 7.5). Add enough volume to trypsinize cells. Aspirate and spin cells for 10 minutes at 4° C. at 250×g. Add enough Lysis buffer to the cells.
5. Remove the cell lysate and apply the sample into a 2 ml avidin-sepharose (tetramer form) column (pre-equilibrated with 50 mM Tris-HCl/0.001% NP-40, pH 7.4) to remove native biotinylated compounds.
6. Take 2.7 ml of pre-cleared cell lysate and incubate the sample with RC-MC-110.
Tube 1: 2.7 ml of pre-cleared lysate plus 150 μl of 1.2 mg/ml biotinylated RC-MC-110+150 μl of DMSO (maintaining the same amount of DMSO in both tubes).
Tube 2: 2.7 ml of pre-cleared lysate plus 150 μl of 1.2 mg/ml of biotinylated RC-MC-110 (RC-MC-150, see structure below), and add 150 μl of 12 mg/ml RC-MC-110 stock. Incubate the sample overnight at […] on a rocking platform (or gentle stirring) with gentle agitation.
7. Load samples on an avidin-sepharose column pre-equilibrated with buffer (50 mM Tris-HCl pH 7.4, 0.1% NP-40=TD buffer). Wash column until background is reached.
8. Wash column with 2.5 ml of 0.6 mg/ml of RC-MC-110 in TD buffer (stock 12 mg/ml) until peak elutes (if any) and stable background. Pool fractions.

[6] = 100 nM-10 uM for 4 days with 100 uM 8-Br-cAMP

Row | Compound | NKCC1 staining [1] | EGF-induced proliferation of ADPKD cells (MTT) ([2]; 25 ng/ml EGF, 1 uM to 25 uM GMZ for 72 h, dose-dependent) | cell proliferation at 10 μM ([2]; 10 μM) | cAMP-induced proliferation of ADPKD cells (MTT) ([2]; 100 μM cAMP, 1 uM to 25 uM GMZ for 72 h, dose-dependent) | Cell proliferation of ADPKD cells with increasing concentration (MTT, FIGS. 10A and 10B) ([2]; cAMP, EGF or 5% FBS medium, 72 hours) | Toxicity to the kidneys in metanephric culture [3, 6] | cystic dilation [3, 6] | cyst formation in Pkd1+/− kidneys ([3]; 1-2 uM) | cyst reduction in Pkd1−/− kidneys ([3]; 5-10 uM, data not shown) | cAMP-mediated cyst formation in heterozygous and null metanephric kidneys ([3]; 5 microM) | cystic index, three Pkd1 genotypes ([3]; 5 microM) | Persistence of inhibition after washout ([3]; 5 microM for 24 hrs, then cAMP only, read on Day 4) | Size of kidneys in organ culture ([3]; compared to untreated counterparts) | Ames test (+)S9 0.1 mg/pl. ([4]; (+)S9 mix, 0.1 mg/pl.) | Ames test (+)S9 1 mg/pl. ([4]; (+)S9 mix, 1 mg/pl.) | Ames test (+)S9 10 mg/pl. ([4]; (+)S9 mix, 10 mg/pl.) | Ames test (−)S9 0.1 mg/pl. ([4]; (−)S9 mix, 0.1 mg/pl.) | Ames test (−)S9 1 mg/pl. ([4]; (−)S9 mix, 1 mg/pl.) | Ames test (−)S9 10 mg/pl. ([4]; (−)S9 mix, 10 mg/pl.) | Binding of HSP90 [5]
1 | O=C(O)CCc1nn(Cc2ccc(Cl)cc2Cl)c2cc(C(F)(F)F)ccc12 [GMZ, 3-[1-(2,4-dichlorobenzyl)-6-trifluoromethyl-1H-indazol-3-yl]-propionic acid] | NKCC1 staining was reduced | significantly inhibited | no effect on cell proliferation | significantly inhibited | more effectively inhibited cell proliferation as the concentration was increased | did not appear to be toxic to the kidneys | significantly inhibited cystic dilation | essentially preventing cyst formation | dramatic cyst reduction | significantly inhibited cAMP-mediated cyst formation | dramatic decrease in cystic index | the inhibitory effects appeared to persist in culture | somewhat reduced in size | – | – | – | – | – | – | –
2 | O=C(O)/C=C/c1nn(Cc2ccc(Cl)cc2Cl)c2cc(C(F)(F)F)ccc12 [RC-MC-110, trans 3-[1-(2,4-dichlorobenzyl)-6-trifluoromethyl-1H-indazol-3-yl]-acrylic acid] | – | – | – | – | – | – | – | – | – | – | – | – | – | Pass | Pass | Pass | Pass | Pass | Pass | bind heat shock 90 proteins; also recorded: drug specific elution of Hsp90
